Like-named read-outs stand apart in the source and are kept apart here.
What was measured:
Format in all cases: cell-based
[1] = test system: human Burkitt's lymphoma cell line Namalwa; test: Caspase cascade activation (EC50), Namalwa; conditions: Homo sapiens, Burkitts lymphoma cell, Namalwa cells
Experimental: (§1) Human breast cancer cell lines T-47D, human hepatocellular carcinoma cell line SNU398, human colon carcinoma cell line HCT116, human cancer cell line H1299, human Burkitt's lymphoma cell line Namalwa, human lymphoma cell line Raji, and human B cell lymphoblastoid cell line Ramos were grown according to media component mixtures designated by American Type Culture Collection+10% FCS (Invitrogen Corporation), in a 5% CO2-95% humidity incubator at 37° C. T-47D and H1299 cells were maintained at a cell density between 50 and 80% confluency at a cell density of 0.1 to 0.6×10^6 cells/mL. Cells were harvested at 600×g and resuspended at 0.65×10^6 cells/mL into appropriate media+10% FCS. An aliquot of 22.5 μL of cells was added to a well of a 384-well microtiter plate containing 2.5 μL of a 10% DMSO in RPMI-1640 media solution containing 0.16 to 100 μM of 3-(2-chlorophenyl)-6-(3,4-methylenedioxyphenyl)-7H-[1,2,4]triazolo[3,4-b][1,3,4]thiadiazine or other test compound (0.016 to 10 μM final). An aliquot of 22.5 μL of cells was added to a well of a 384-well microtiter plate containing 2.5 μL of a 10% DMSO in RPMI-1640 media solution without test compound as the control sample. The samples were mixed by agitation and then incubated at 37° C. for 48 h in a 5% CO2-95% humidity incubator. After incubation, the samples were removed from the incubator and 25 μL of a solution containing 14 μM of N—(Ac-DEVD)-N′-ethoxycarbonyl-R110 (SEQ ID No.:1) fluorogenic substrate (Cytovia, Inc.; WO99/18856), 20% sucrose (Sigma), 20 mM DTT (Sigma), 200 mM NaCl (Sigma), 40 mM Na PIPES buffer pH 7.2 (Sigma), and 500 μg/mL lysolecithin (Calbiochem) was added. The samples were mixed by agitation and incubated at room temperature. Using a fluorescent plate reader (Model SPECTRAfluor Plus, Tecan), an initial reading (T=0) was made approximately 1-2 min after addition of the substrate solution, employing excitation at 485 nm and emission at 530 nm, to determine the background fluorescence of the control sample. After the 3 h incubation, the samples were read for fluorescence as above (T=3 h). Calculation: The Relative Fluorescence Unit values (RFU) were used to calculate the sample readings as follows: RFU(T=3H)−Control RFU(T=0)=Net RFU(T=3h) The activity of caspase cascade activation was determined by the ratio of the net RFU value for 3-(2-chlorophenyl)-6-(3,4-methylenedioxyphenyl)-7H-[1,2,4]triazolo[3,4-b][1,3,4]thiadiazine (Example P) or other test compound to that of control samples. The EC50 (nM) was determined by a sigmoidal dose-response calculation (Prism 3.0, GraphPad Software Inc.).

[2] = test system: human colon carcinoma cell line HCT116; test: Caspase cascade activation (EC50), HCT116; conditions: Homo sapiens, HCT-116, HCT116 cells
Experimental: as §1

[3] = test system: human breast cancer cell line T-47D; test: Caspase cascade activation (EC50), T-47D; conditions: Homo sapiens, T47D cells
Experimental: as §1

[4] = test system: human hepatocellular carcinoma cell line SNU398; test: Caspase cascade activation (EC50), SNU398; conditions: Homo sapiens, SNU-398, SNU398 cells
Experimental: as §1

[5] = caspase cascade activation, read-out: caspase potency (EC50) Namalwa
[6] = caspase cascade activation, read-out: caspase potency (EC50) HCT116
[7] = caspase cascade activation, read-out: caspase potency (EC50) T47D
[8] = caspase cascade activation, read-out: caspase potency (EC50) SNU398
[9] = read-out: Caspase potency (EC50) Namalwa
[10] = read-out: Caspase potency (EC50) HCT116
[11] = read-out: Caspase potency (EC50) T47D
[12] = read-out: Caspase potency (EC50) SNU398

SMILES | EC50 [1, 5] [µM] | EC50 [2, 6] [µM] | EC50 [3, 7] [µM] | EC50 [4, 8] [µM] | EC50 [1, 9] [µM] | EC50 [2, 10] [µM] | EC50 [3, 11] [µM] | EC50 [4, 12] [µM]
COC(=O)c1ccc(C2=Nn3c(nnc3-c3ccccc3OC)SC2)cc1 [Example 85, 6-(4-Methoxycarbonylphenyl)-3-(2-methoxyphenyl)-7H-[1,2,4]triazolo[3,4-b][1,3,4]thiadiazine] | 0.209 | 0.298 | 0.274 | 0.253 |  |  |  | 
COc1ccc(-c2nnc3n2N=C(c2ccc4[nH]c(=O)oc4c2)CS3)cc1OC [Example 35, 6-(2,3-Dihydro-2-oxobenzo[d]oxazol-6-yl)-3-(3,4-dimethoxyphenyl)-7H-[1,2,4]triazolo[3,4-b][1,3,4]thiadiazine] | > 10 | > 10 | > 10 | > 10 |  |  |  | 
Cc1ccc(C2=Nn3c(nnc3-c3ccc[nH]3)SC2)cc1 [Example 92, 6-(4-Methylphenyl)-3-(1H-pyrrol-2-yl)-7H-[1,2,4]triazolo[3,4-b][1,3,4]thiadiazine] | > 10 | > 10 | > 10 | > 10 |  |  |  | 
Cc1ccc(C2=Nn3c(nnc3-c3cccn3C)SC2)cc1 [Example 94, 3-(1-Methyl-1H-pyrrol-2-yl)-6-(4-methylphenyl)-7H-[1,2,4]triazolo[3,4-b][1,3,4]thiadiazine] | 1.29 | 5.51 | 2.63 | 1.44 |  |  |  | 
Cc1ccc(C2=Nn3c(nnc3-c3ccc(Cl)cc3C)SC2)cc1N [Example 91, 6-(3-Amino-4-methylphenyl)-3-(4-chloro-2-methylphenyl)-7H-[1,2,4]triazolo[3,4-b][1,3,4]thiadiazine] | 0.016 | 0.03 | 0.063 | 0.028 |  |  |  | 
COc1ccccc1-c1nnc2n1N=C(c1ccc(N)c(N)c1)CS2 [Example 60, 6-(3,4-Diaminophenyl)-3-(2-methoxyphenyl)-7H-[1,2,4]triazolo[3,4-b][1,3,4]thiadiazine] | > 10 | > 10 | > 10 | > 10 |  |  |  | 
COc1ccccc1-c1nnc2n1N=C(c1ccc(C(C)C)cc1)CS2 [Example 44, 6-(4-Isopropylphenyl)-3-(2-methoxyphenyl)-7H-[1,2,4]triazolo[3,4-b][1,3,4]thiadiazine] | 0.248 | 0.275 | 0.281 | 0.243 |  |  |  | 
COc1ccccc1-c1nnc2n1N=C(c1ccccc1)CS2 [Example K3] | 2.83 | 5.33 | 3.65 | 3.78 |  |  |  | 
Cc1ccc(C2=Nn3c(nnc3-c3ccoc3C)SC2)cc1 [Example 83, 3-(2-Methylfuran-3-yl)-6-(4-methylphenyl)-7H-[1,2,4]triazolo[3,4-b][1,3,4]thiadiazine] | 0.332 | 0.683 | 2.54 | 0.523 |  |  |  | 
COc1cccc(C2=Nn3c(nnc3-c3ccc(Cl)cc3Cl)SC2)c1 [Example O3] | 0.585 | 2.62 | 1.29 | 0.765 |  |  |  | 
COc1ccccc1-c1nnc2n1N=C(c1ccn(C)c1)CS2 [Example 86, 3-(2-Methoxyphenyl)-6-(1-methyl-1H-pyrrol-3-yl)-7H-[1,2,4]triazolo[3,4-b][1,3,4]thiadiazine] | 0.32 | 1.32 | 0.525 | 0.38 |  |  |  | 
COc1cc(Cl)ccc1-c1nnc2n1N=C(c1ccc(C)cc1)CS2 [Example 97, 3-(4-Chloro-2-methoxyphenyl)-6-(4-methylphenyl)-7H-[1,2,4]triazolo[3,4-b][1,3,4]thiadiazine] |  |  |  |  | 0.004 | 0.008 | 0.034 | 0.006
COc1ccccc1C1=Nn2c(nnc2-c2ccccc2OC)SC1 [Example 64, 3-(2-Methoxyphenyl)-6-(2-methoxylphenyl)-7H-[1,2,4]triazolo[3,4-b][1,3,4]thiadiazine] | > 10 | > 10 | > 10 | > 10 |  |  |  | 
Cc1ccc(C2=Nn3c(nnc3-c3ccccc3N)SC2)cc1 [Example 74, 3-(2-Aminophenyl)-6-(4-methylphenyl)-7H-[1,2,4]triazolo[3,4-b][1,3,4]thiadiazine] | 0.507 | 0.557 | > 10 | 0.529 |  |  |  | 
Cc1ccc(C2=Nn3c(nnc3-c3cc(N)cn3C)SC2)cc1 [Example 99, 3-(1-Methyl-4-amino-1H-pyrrol-2-yl)-6-(4-methylphenyl)-7H-[1,2,4]triazolo[3,4-b][1,3,4]thiadiazine] |  |  |  |  | 1.18 | 1.78 | 5.42 | 1.26
Cc1ccc(C2=Nn3c(nnc3-c3ccccc3S(C)(=O)=O)SC2)cc1 [Example 73, 3-(2-Methylsulfonylphenyl)-6-(4-methylphenyl)-7H-[1,2,4]triazolo[3,4-b][1,3,4]thiadiazine] | > 10 | > 10 | > 10 | > 1 |  |  |  | 
COc1ccc(C2=Nn3c(nnc3-c3cccc(Cl)c3Cl)SC2)cc1 [Example M3] | 0.068 | 0.124 | 0.268 | 0.082 |  |  |  | 
Cc1cc(Cl)ccc1-c1nnc2n1N=C(c1ccc(C)c([N+](=O)[O-])c1)CS2 [Example 90, 3-(4-Chloro-2-methylphenyl)-6-(4-methyl-3-nitrophenyl)-7H-[1,2,4]triazolo[3,4-b][1,3,4]thiadiazine] | 0.303 | 0.492 | 0.915 | 0.412 |  |  |  | 
Cc1ccc(C2=Nn3c(nnc3-c3c(C)nc4ccccn34)SC2)cc1 [Example 98, 3-(2-Methyl-imidazo[1,2-a]pyridin-3-yl)-6-(4-methylphenyl)-7H-[1,2,4]triazolo[3,4-b][1,3,4]thiadiazine] |  |  |  |  | 0.066 | 0.098 | 0.166 | 0.059
COc1cc(C2=Nn3c(nnc3-c3ccccc3OC)SC2)ccc1N [Example 57, 6-(4-Amino-3-methoxyphenyl)-3-(2-methoxyphenyl)-7H-[1,2,4]triazolo[3,4-b][1,3,4]thiadiazine] | 2.33 | 2.87 | 2.64 | 2.28 |  |  |  | 
COc1cc(C)c(Cl)cc1C1=Nn2c(nnc2-c2ccccc2OC)SC1 [Example 49, 6-(5-Chloro-2-methoxy-4-methylphenyl)-3-(2-methoxyphenyl)-7H-[1,2,4]triazolo[3,4-b][1,3,4]thiadiazine] | 5.59 | > 10 | > 10 | 5.65 |  |  |  | 
COc1ccccc1-c1nnc2n1N=C(c1cc(Br)c(N)c(Br)c1)CS2 [Example 78, 6-(4-Amino-3,5-dibromophenyl)-3-(2-methoxyphenyl)-7H-[1,2,4]triazolo[3,4-b][1,3,4]thiadiazine] | 0.073 | 0.124 | 0.259 | 0.051 |  |  |  | 
COc1ccccc1-c1nnc2n1N=C(c1cc(I)c(N)c(I)c1)CS2 [Example 79, 6-(4-Amino-3,5-diiodophenyl)-3-(2-methoxyphenyl)-7H-[1,2,4]triazolo[3,4-b][1,3,4]thiadiazine] | 0.304 | 1.25 | 0.907 | 0.562 |  |  |  | 
Cc1ccc(C2=Nn3c(nnc3-c3snnc3C)SC2)cc1 [Example 93, 3-(4-Methyl-1,2,3-thiadiazol-5-yl)-6-(4-methylphenyl)-7H-[1,2,4]triazolo[3,4-b][1,3,4]thiadiazine] | > 10 | > 10 | > 10 | > 10 |  |  |  | 

From US20080045514A1 (Cytovia, Inc., priority 2006, published 2008)
